Tests used:
nasal cavity = assay: Nebulizer screening of TRPM8 agonists for sensations in the nasal cavity; assay type: in vivo, human; settings: NasoNeb nebulizer; for Sensory effects after delivery into the nasal cavity: 3 to 5 sec per nostril
Experimental: Formulations for nebulization with NasoNeb® used a standard recipe of (Table 8): 1% of the active ingredient (1 to 10 mg/mL), 2% Tween 80 (Polysorbate 80), 1 to 5% ethanol, and made up to 100% with water. The mixture is centrifuged in a FlackTek, Inc., Speedmixer for at least 10 min at 3000 rpm. The Speedmixer spins the sample in 3 dimensions. The result is a white homogeneous liquid suspension with some of the solids now dissolved. For dosing, ˜2 to 3 mL is loaded into the canister of the nebulizer. The nebulizer nozzle tip is placed in the nostril and activated by pressing a button for 3 to 5 sec using a clock timer. […] For D-Ala-OiPr a 5-sec activation will deliver 2*0.73 mL*2 mg/ml, or a total dose of 3 mg per nose. The nasal cavity is relatively tolerant to exogenous agents with irritant properties, as many rinses are used for rhinitis and sinusitis. For some p-menthanecarboxamide analogs, a 2% (20 mg/mL) solution is possible and contemplated. An ideal agent reproduces a comfortable cooling or sensations of negative heat flux in the nasal cavity. […] Heat flux refers to the rate of heat transfer per unit area. The sinonasal cavity mucosa differs from philtrum skin and ocular margins in histology, so the choice of the right molecule must be made by experiment. The TRPM8 agonists were chosen for screening using a nebulizer for delivery. The NasoNeb system is powerful and effective for the OMC (FIG. 3). The delivery time per nostril in three to five seconds. […] These parameters were estimated in the initial trials: • Onset and offset of cooling sensations in the nasal cavity. • The intensity and quality of the cooling sensations in the nasal cavity. • Presence of effects such as sneezing or cough after dosing. • Degree of nasal stuffiness on a scale of 0 to 5. • Degree of rhinorrhea and phlegm in nasal secretions. • Questions regarding comfort and sleep at night.

hTRPM8 channel = molecular target: T1, hTRPM8 channel (Homo sapiens, UniProt Q7Z2W7); assay: TRPM8 receptor assay, calcium entry (Fluo-8, FLIPR) in transfected CHO cells; assay type: cell-based; settings: for EC50: CHO cells transfected with hTRPM8, Fluo-8 calcium kit, FLIPR; for Potency Relative to L-menthol: ratio of TRPM8 EC50 values, menthol = 1.0
T1 construct: host or cells: CHO cells
Description: FIG. 4. Agonist activities of TRPM8 analogs. […] The relative fluorescence (RF) unit on the ordinate represents calcium entry into transfected cells. […] The structures of these compounds are in Table 4.
The applicant has synthesized and examined a series of p-menthanecarboxamides conjugated to amino acid esters. […] This class of molecules is called N-alkylcarbonyl-amino acid esters. GlyOiPr is a p-menthanecarboxamide conjugate of glycine isopropyl (iPr) ester. It is similar in structure to WS-5, a cooling agent used as a food additive. WS-5 is the p-menthane-glycine ethyl (Et) ester, or GlyOEt. […] These in vitro effects were measured in CHO cells transfected with the hTRPM8 channel. Receptor activity was quantified using a Fluo-8 calcium kit and a Fluorescence Imaging Plate Reader ([…]™).

ocular margins = assay: Cooling duration bioassay on eyelids/ocular margins; assay type: in vivo, human; settings: for Eyelids/Ocular Surface: Table 6, cooling duration, non-keratinized
Description: (§1) FIG. 1. Comparison of cooling duration of various p-menthanecarboxamide analogs on philtrum skin versus ocular margins. The philtrum skin is keratinized, but the ocular margins are not. The test substances numbered 1 to 11 are: D-Ala-OiPr, Gly-OiPr, D-Ala-OEt, D-Ala-OMe, D-Ala-GlynPr, GlynPr, D-Ala-OnBu, GlynBu, GlyOEt, L-Ala-OEt, and N-Me-D-Ala-OEt, respectively. Two outliers (1 and 2) were identified as preferred embodiments because they preferentially cool the ocular margins. The nasal cavity surfaces like the ocular margins are not keratinized.
(§2) Cooling agents have been assayed in various ways depending on intended use. For example, for the skin the test substance can be applied on philtrum skin, using descriptions of coolness on a scale of 0 to 3. For the ocular surface, the active ingredient can be applied to the closed eyelids using a wipe. In the oral cavity, drug applications are on the posterior dorsal surface of the tongue. For the oropharyngeal surface, the cooling agent may be applied as an orally disintegrating tablet. The ability of a cooling agent to antagonize a noxious stimuli may also be tested, using nociception from citric acid or chili pepper sauce. Responses are usually measured using a Visual Analog Scale with a numerical rating. For nasal responses, however, such procedures have not been standardized. Some endpoints to consider are open and comfortable breathing, the presence or absence of sniffles, and the secretion of phlegm.

philtrum skin = assay: Cooling duration bioassay on philtrum skin; assay type: in vivo, human
Description: as §1, §2

oral cavity = assay: Chili-pepper sauce test (oral cavity); assay type: in vivo, human; parameters: scale not given here; settings: Table 6; grades 0, +, ++ without key
Description: as §2

[1] = Table 6, cooling duration, keratinized skin

T1 sequence (Q7Z2W7 whole entry): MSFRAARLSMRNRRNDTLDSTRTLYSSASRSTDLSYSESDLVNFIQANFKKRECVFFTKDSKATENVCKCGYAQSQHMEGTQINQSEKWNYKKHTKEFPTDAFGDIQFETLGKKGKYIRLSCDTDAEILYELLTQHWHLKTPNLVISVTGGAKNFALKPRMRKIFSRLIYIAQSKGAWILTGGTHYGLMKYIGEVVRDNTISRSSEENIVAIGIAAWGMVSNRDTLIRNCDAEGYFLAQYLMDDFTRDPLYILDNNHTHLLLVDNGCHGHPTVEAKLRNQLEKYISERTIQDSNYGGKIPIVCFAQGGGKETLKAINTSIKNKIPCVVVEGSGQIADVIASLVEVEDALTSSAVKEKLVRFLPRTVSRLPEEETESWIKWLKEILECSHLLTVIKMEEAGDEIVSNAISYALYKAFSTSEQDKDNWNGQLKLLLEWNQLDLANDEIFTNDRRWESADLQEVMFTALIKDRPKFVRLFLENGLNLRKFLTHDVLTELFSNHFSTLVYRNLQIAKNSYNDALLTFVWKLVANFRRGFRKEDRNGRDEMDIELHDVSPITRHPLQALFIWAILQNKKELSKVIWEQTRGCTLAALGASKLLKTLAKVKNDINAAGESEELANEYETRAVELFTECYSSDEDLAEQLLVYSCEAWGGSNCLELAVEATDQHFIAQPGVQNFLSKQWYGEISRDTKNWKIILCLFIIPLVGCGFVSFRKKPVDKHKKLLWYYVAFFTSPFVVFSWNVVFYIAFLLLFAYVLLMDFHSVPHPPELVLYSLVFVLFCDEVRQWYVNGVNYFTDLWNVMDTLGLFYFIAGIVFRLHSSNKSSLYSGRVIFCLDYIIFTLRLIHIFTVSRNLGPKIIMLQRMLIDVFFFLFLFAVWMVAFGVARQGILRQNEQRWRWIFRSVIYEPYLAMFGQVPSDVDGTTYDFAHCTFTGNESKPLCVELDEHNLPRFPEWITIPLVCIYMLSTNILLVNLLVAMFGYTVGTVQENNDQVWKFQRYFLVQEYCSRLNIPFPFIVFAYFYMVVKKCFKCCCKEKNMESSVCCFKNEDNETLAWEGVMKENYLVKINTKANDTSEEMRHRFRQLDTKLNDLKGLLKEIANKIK

SMILES	Cooling duration in the nasal cavity (nasal cavity) [min]	Sensory effects after delivery into the nasal cavity (nasal cavity)	EC50 (hTRPM8 channel) [nM]	Potency Relative to L-menthol (hTRPM8 channel)	Eyelids/Ocular Surface (ocular margins) [min]	Philtrum Skin (philtrum skin; [1]) [min]	Chili-Pepper Sauce Test (oral cavity)	Ocular Surface (ocular margins; Table 7, Gly esters) [min]	Philtrum Skin (philtrum skin; Table 7, Gly esters) [min]
CCOC(=O)[C@@H](C)NC(=O)[C@@H]1C[C@H](C)CC[C@H]1C(C)C [D-Ala-OEt, (R)-2-[((1R,2S,5R)-2-isopropyl-5-methyl-cyclohexanecarbonyl)-amino]-propionic acid ethyl ester]	~15	Bitter taste, causes coughing	270	14.0	180	103	–	–	–
COC(=O)C(C)NC(=O)[C@@H]1C[C@H](C)CC[C@H]1C(C)C (stereo partly drawn) [D-Ala-OMe]	–	–	590	6.4	120	77	–	–	–
CCCCOC(=O)C(C)NC(=O)[C@@H]1C[C@H](C)CC[C@H]1C(C)C (stereo partly drawn) [D-Ala-OnBu]	–	–	1030	3.7	40	80	0	–	–
CC(C)[C@@H]1CC[C@@H](C)C[C@H]1C(=O)NCCc1ccccn1 [FEMA 4549, (1R,2S,5R)-N-(2-(pyridin-2-yl)ethyl)-3-p-menthanecarboxamide, reference compound]	–	Although potent on TRPM8 receptor, slow onset and absence of refreshing cooling.	–	–	–	–	–	–	–
COC(=O)CNC(=O)[C@@H]1C[C@H](C)CC[C@H]1C(C)C [GlyOMe]	–	–	500	7.6	–	–	–	5	10
CCOC(=O)[C@H](C)NC(=O)[C@@H]1C[C@H](C)CC[C@H]1C(C)C [L-Ala-OEt, (S)-2-[((1R,2S,5R)-2-isopropyl-5-methyl-cyclohexanecarbonyl)-amino]-propionic acid ethyl ester]	–	Very little cooling, low potency on TRPM8, good only as negative control.	24000	0.2	0	34	0	–	–
CCOC(=O)C(C)NC(=O)[C@@H]1C[C@H](C)CC[C@H]1C(C)C (stereo partly drawn) [L-Ala-OiPr]	–	–	–	–	15	27	0	–	–
CCOC(=O)C(C)NC(=O)[C@@H]1C[C@H](C)CC[C@H]1C(C)C (stereo partly drawn) [L-Ala-OnBu]	–	–	–	–	0	0	0	–	–
CCOC(=O)C(C)NC(=O)[C@@H]1C[C@H](C)CC[C@H]1C(C)C (stereo partly drawn) [L-Ala-OnPr]	–	–	–	–	10	22	0	–	–
O=C1NC(c2cccc([N+](=O)[O-])c2)=CCN1c1ccccc1O [icilin, 1-[2-hydroxy]-4-[3-nitrophenyl]-1,2,3,6-tetrahydropyrimidine-2-one, reference compound]	–	Difficult to form a homogeneous suspension, causes systemic cooling at higher doses	–	–	–	–	–	–	–

From patent US20250288583A1, “Treatment of Mucus Hypersecretion” (priority 2024, published 2025)
